{
  "source": "PubChem BioAssay AID2060602",
  "about": "(Molecular Pharmacology Branch, DTP, NCI, 2025);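 as to viability, T/C: drug exposure lasted seven days before viability readout; 100% = DMSO vehicle control wells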",
  "test_system": "648629-189-R-J1-PDC complex spheroids viability",
  "assay": "Anticancer human tumor 648629-189-R-J1-PDC patient-derived bladder carcinoma cell line growth inhibition [CLK]",
  "details": "for IC50: curve of first compound; for viability, T/C: stronger effect = lower value",
  "in_short": "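Multi-cell-type spheroids combined patient-derived tumor cells with HUVEC endothelial cells and human mesenchymal stem cells. Paired agents were dosed in half-log steps down from about clinical Cmax, or from 10 microM where Cmax was unknown.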",
  "key": {"[1]": {"details": "second compound 0.0316 µM, first compound 0.0316 µM"}, "[2]": {"details": "second compound 0.0316 µM, first compound 0.1 µM"}, "[3]": {"details": "second compound 0.0316 µM, first compound 0.316 µM"}, "[4]": {"details": "second compound 0.0316 µM, first compound 1 µM"}, "[5]": {"details": "second compound 0.1 µM, first compound 0.0316 µM"}, "[6]": {"details": "second compound 0.1 µM, first compound 0.1 µM"}, "[7]": {"details": "second compound 0.1 µM, first compound 0.316 µM"}, "[8]": {"details": "second compound 0.1 µM, first compound 1 µM"}, "[9]": {"details": "second compound 0.316 µM, first compound 0.0316 µM"}, "[10]": {"details": "second compound 0.316 µM, first compound 0.1 µM"}, "[11]": {"details": "second compound 0.316 µM, first compound 0.316 µM"}, "[12]": {"details": "second compound 0.316 µM, first compound 1 µM"}, "[13]": {"details": "second compound 1 µM, first compound 0.0316 µM"}, "[14]": {"details": "second compound 1 µM, first compound 0.1 µM"}, "[15]": {"details": "second compound 1 µM, first compound 0.316 µM"}, "[16]": {"details": "second compound 1 µM, first compound 1 µM"}, "[17]": {"details": "second compound 3.16 µM, first compound 0.0316 µM"}, "[18]": {"details": "second compound 3.16 µM, first compound 0.1 µM"}, "[19]": {"details": "second compound 3.16 µM, first compound 0.316 µM"}, "[20]": {"details": "second compound 3.16 µM, first compound 1 µM"}, "[21]": {"details": "second compound 10 µM, first compound 0.0316 µM"}, "[22]": {"details": "second compound 10 µM, first compound 0.1 µM"}, "[23]": {"details": "second compound 10 µM, first compound 0.316 µM"}, "[24]": {"details": "second compound 10 µM, first compound 1 µM"}},
  "data": [
    {"smiles": "CC(=O)O[C@H]1C(=O)[C@@]2(C)[C@H]([C@H](OC(=O)c3ccccc3)[C@]3(O)C[C@H](OC(=O)[C@H](O)[C@@H](NC(=O)c4ccccc4)c4ccccc4)C(C)=C1C3(C)C)[C@]1(OC(C)=O)CO[C@@H]1C[C@@H]2O", "note": "+ CNC(=O)c1ccc(Nc2nc(OC3CCCC3)c3c(-c4ccc5nc(C)oc5c4)c[nH]c3n2)c(OC)c1", "values": [
      {"measurement": "IC50", "setting": "second compound 0.0316 µM", "result": "< 0.0316", "unit": "µM"},
      {"measurement": "IC50", "setting": "second compound 0.1 µM", "result": "< 0.0316", "unit": "µM"},
      {"measurement": "IC50", "setting": "second compound 0.316 µM", "result": "< 0.0316", "unit": "µM"},
      {"measurement": "IC50", "setting": "second compound 1 µM", "result": "< 0.0316", "unit": "µM"},
      {"measurement": "IC50", "setting": "second compound 3.16 µM", "result": "< 0.0316", "unit": "µM"},
      {"measurement": "IC50", "setting": "second compound 10 µM", "result": "< 0.0316", "unit": "µM"},
      {"measurement": "viability, T/C", "setting": "[1]", "result": 11.1, "unit": "%"},
      {"measurement": "viability, T/C", "setting": "[2]", "result": 9.61, "unit": "%"},
      {"measurement": "viability, T/C", "setting": "[3]", "result": 10, "unit": "%"},
      {"measurement": "viability, T/C", "setting": "[4]", "result": 12.1, "unit": "%"},
      {"measurement": "viability, T/C", "setting": "second compound 0.0316 µM, first compound 3.16 µM", "result": 14.1, "unit": "%"},
      {"measurement": "viability, T/C", "setting": "second compound 0.0316 µM, first compound 10 µM", "result": 15.9, "unit": "%"},
      {"measurement": "viability, T/C", "setting": "[5]", "result": 13.8, "unit": "%"},
      {"measurement": "viability, T/C", "setting": "[6]", "result": 12.4, "unit": "%"},
      {"measurement": "viability, T/C", "setting": "[7]", "result": 11.7, "unit": "%"},
      {"measurement": "viability, T/C", "setting": "[8]", "result": 12.5, "unit": "%"},
      {"measurement": "viability, T/C", "setting": "second compound 0.1 µM, first compound 3.16 µM", "result": 13, "unit": "%"},
      {"measurement": "viability, T/C", "setting": "second compound 0.1 µM, first compound 10 µM", "result": 28.7, "unit": "%"},
      {"measurement": "viability, T/C", "setting": "[9]", "result": 40.7, "unit": "%"},
      {"measurement": "viability, T/C", "setting": "[10]", "result": 50.4, "unit": "%"},
      {"measurement": "viability, T/C", "setting": "[11]", "result": 62.9, "unit": "%"},
      {"measurement": "viability, T/C", "setting": "[12]", "result": 70.5, "unit": "%"},
      {"measurement": "viability, T/C", "setting": "second compound 0.316 µM, first compound 3.16 µM", "result": 76.1, "unit": "%"},
      {"measurement": "viability, T/C", "setting": "second compound 0.316 µM, first compound 10 µM", "result": 97.3, "unit": "%"},
      {"measurement": "viability, T/C", "setting": "[13]", "result": 40.6, "unit": "%"},
      {"measurement": "viability, T/C", "setting": "[14]", "result": 64.3, "unit": "%"},
      {"measurement": "viability, T/C", "setting": "[15]", "result": 58.8, "unit": "%"},
      {"measurement": "viability, T/C", "setting": "[16]", "result": 66.5, "unit": "%"},
      {"measurement": "viability, T/C", "setting": "second compound 1 µM, first compound 3.16 µM", "result": 75, "unit": "%"},
      {"measurement": "viability, T/C", "setting": "second compound 1 µM, first compound 10 µM", "result": 76.9, "unit": "%"},
      {"measurement": "viability, T/C", "setting": "[17]", "result": 33.9, "unit": "%"},
      {"measurement": "viability, T/C", "setting": "[18]", "result": 47.7, "unit": "%"},
      {"measurement": "viability, T/C", "setting": "[19]", "result": 74.3, "unit": "%"},
      {"measurement": "viability, T/C", "setting": "[20]", "result": 64.2, "unit": "%"},
      {"measurement": "viability, T/C", "setting": "second compound 3.16 µM, first compound 3.16 µM", "result": 67.5, "unit": "%"},
      {"measurement": "viability, T/C", "setting": "second compound 3.16 µM, first compound 10 µM", "result": 72.7, "unit": "%"},
      {"measurement": "viability, T/C", "setting": "[21]", "result": 39.9, "unit": "%"},
      {"measurement": "viability, T/C", "setting": "[22]", "result": 42.5, "unit": "%"},
      {"measurement": "viability, T/C", "setting": "[23]", "result": 59.8, "unit": "%"},
      {"measurement": "viability, T/C", "setting": "[24]", "result": 64.4, "unit": "%"},
      {"measurement": "viability, T/C", "setting": "second compound 10 µM, first compound 3.16 µM", "result": 65.7, "unit": "%"},
      {"measurement": "viability, T/C", "setting": "second compound 10 µM, first compound 10 µM", "result": 73.2, "unit": "%"}
    ]},
    {"smiles": "CCc1c2c(nc3ccc(O)cc13)-c1cc3c(c(=O)n1C2)COC(=O)[C@]3(O)CC", "note": "+ CNC(=O)c1ccc(Nc2nc(OC3CCCC3)c3c(-c4ccc5nc(C)oc5c4)c[nH]c3n2)c(OC)c1", "values": [
      {"measurement": "IC50", "setting": "second compound 0.0316 µM", "result": "< 0.00316", "unit": "µM"},
      {"measurement": "IC50", "setting": "second compound 0.1 µM", "result": "< 0.00316", "unit": "µM"},
      {"measurement": "IC50", "setting": "second compound 0.316 µM", "result": "< 0.00316", "unit": "µM"},
      {"measurement": "IC50", "setting": "second compound 1 µM", "result": "< 0.00316", "unit": "µM"},
      {"measurement": "IC50", "setting": "second compound 3.16 µM", "result": "< 0.00316", "unit": "µM"},
      {"measurement": "IC50", "setting": "second compound 10 µM", "result": "< 0.00316", "unit": "µM"},
      {"measurement": "viability, T/C", "setting": "second compound 0.0316 µM, first compound 0.00316 µM", "result": 30.3, "unit": "%"},
      {"measurement": "viability, T/C", "setting": "second compound 0.0316 µM, first compound 0.01 µM", "result": 11.5, "unit": "%"},
      {"measurement": "viability, T/C", "setting": "[1]", "result": 8.79, "unit": "%"},
      {"measurement": "viability, T/C", "setting": "[2]", "result": 5.84, "unit": "%"},
      {"measurement": "viability, T/C", "setting": "[3]", "result": 5.59, "unit": "%"},
      {"measurement": "viability, T/C", "setting": "[4]", "result": 4.59, "unit": "%"},
      {"measurement": "viability, T/C", "setting": "second compound 0.1 µM, first compound 0.00316 µM", "result": 30.1, "unit": "%"},
      {"measurement": "viability, T/C", "setting": "second compound 0.1 µM, first compound 0.01 µM", "result": 10.5, "unit": "%"},
      {"measurement": "viability, T/C", "setting": "[5]", "result": 7.18, "unit": "%"},
      {"measurement": "viability, T/C", "setting": "[6]", "result": 5.66, "unit": "%"},
      {"measurement": "viability, T/C", "setting": "[7]", "result": 5.26, "unit": "%"},
      {"measurement": "viability, T/C", "setting": "[8]", "result": 2.75, "unit": "%"},
      {"measurement": "viability, T/C", "setting": "second compound 0.316 µM, first compound 0.00316 µM", "result": 14.1, "unit": "%"},
      {"measurement": "viability, T/C", "setting": "second compound 0.316 µM, first compound 0.01 µM", "result": 8.48, "unit": "%"},
      {"measurement": "viability, T/C", "setting": "[9]", "result": 7.05, "unit": "%"},
      {"measurement": "viability, T/C", "setting": "[10]", "result": 4.87, "unit": "%"},
      {"measurement": "viability, T/C", "setting": "[11]", "result": 5.55, "unit": "%"},
      {"measurement": "viability, T/C", "setting": "[12]", "result": 4.88, "unit": "%"},
      {"measurement": "viability, T/C", "setting": "second compound 1 µM, first compound 0.00316 µM", "result": 11.9, "unit": "%"},
      {"measurement": "viability, T/C", "setting": "second compound 1 µM, first compound 0.01 µM", "result": 10.9, "unit": "%"},
      {"measurement": "viability, T/C", "setting": "[13]", "result": 8.46, "unit": "%"},
      {"measurement": "viability, T/C", "setting": "[14]", "result": 5.17, "unit": "%"},
      {"measurement": "viability, T/C", "setting": "[15]", "result": 4.53, "unit": "%"},
      {"measurement": "viability, T/C", "setting": "[16]", "result": 3.56, "unit": "%"},
      {"measurement": "viability, T/C", "setting": "second compound 3.16 µM, first compound 0.00316 µM", "result": 14.8, "unit": "%"},
      {"measurement": "viability, T/C", "setting": "second compound 3.16 µM, first compound 0.01 µM", "result": 13.1, "unit": "%"},
      {"measurement": "viability, T/C", "setting": "[17]", "result": 9.98, "unit": "%"},
      {"measurement": "viability, T/C", "setting": "[18]", "result": 6.24, "unit": "%"},
      {"measurement": "viability, T/C", "setting": "[19]", "result": 7.38, "unit": "%"},
      {"measurement": "viability, T/C", "setting": "[20]", "result": 5.35, "unit": "%"},
      {"measurement": "viability, T/C", "setting": "second compound 10 µM, first compound 0.00316 µM", "result": 17.2, "unit": "%"},
      {"measurement": "viability, T/C", "setting": "second compound 10 µM, first compound 0.01 µM", "result": 13.8, "unit": "%"},
      {"measurement": "viability, T/C", "setting": "[21]", "result": 10.4, "unit": "%"},
      {"measurement": "viability, T/C", "setting": "[22]", "result": 7.91, "unit": "%"},
      {"measurement": "viability, T/C", "setting": "[23]", "result": 6.48, "unit": "%"},
      {"measurement": "viability, T/C", "setting": "[24]", "result": 4.98, "unit": "%"}
    ]}
  ]
}
